These are literature values, as cited in patent publication US20140120162A1, “Bioadhesive Drug Delivery Compositions” (PEROSPHERE INC., priority 2011, published 2014).

Where two headings read alike, the source gives them in different places.

Test in series [1]: not given
The source holds these as a separate data set.

Test in series [2]: not given
This is another data set of the same source.

With `C=CC[C@@H]1/C=C(\C)C[C@H](C)C[C@H](OC)[C@H]2O[C@@](O)(C(=O)C(=O)N3CCCC[C@H]3C(=O)O[C@H](/C(C)=C/[C@@H]3CC[C@@H](O)[C@H](OC)C3)[C@H](C)[C@@H](O)CC1=O)[C@H](C)C[C@@H]2OC` [Tacrolimus], where the note is “tacrolimus, 5 mg dose taken twice a day, oral”, the absolute bioavailability entry is reported as “approximately 17%”. Moreover, the solubility in chloroform result in series [1] (chloroform) is “very soluble”. Moreover, in series [1], the “solubility in ethanol / alcohol” value is given as “freely soluble”, the solubility in methanol result was “very soluble” and the solubility in water entry is “practically insoluble”.
Usually half-life stands for the time needed for the level to fall by half in the phase considered. As to `C#C[C@]1(O)CC[C@H]2[C@@H]3CCC4=Cc5oncc5C[C@]4(C)[C@H]3CC[C@@]21C` [Danazol, 17a-Pregna-2,4-dien-20-yno[2,3-d]-isoxazol-17-ol], under “danazol administered orally”, the half-life was 4 to 5 h and the “time of peak concentrations” value was at most 2 h. Where the note is “danazol, doubling the dose”, the “increase in plasma concentration on doubling the dose” value was 30-40%.
`NC(=O)N1c2ccccc2C=Cc2ccccc21` [Carbamazepine, 5H-dibenz[b,f]azepine-5-carboxamide]: in series [1] (acetone), the solubility in acetone entry is “soluble”. Besides, in series [1], the “solubility in ethanol / alcohol” value is given as “soluble” and the solubility in water entry was “practically insoluble”.
In general, bioavailability refers to the share of a dose that reaches the circulation, judged against a reference dose that is usually intravenous. On to `NCC1(CC(=O)O)CCCCC1` [Gabapentin], for which the bioavailability (gabapentin, at best, 900 mg dose given three times a day) is on record as at most 60%. Also, the metabolism in humans result (humans) is “not appreciably metabolized”.
For the molecule `CC(=O)O[C@H]1C(=O)[C@@]2(C)[C@H]([C@H](OC(=O)c3ccccc3)[C@]3(O)C[C@H](OC(=O)[C@H](O)[C@@H](NC(=O)c4ccccc4)c4ccccc4)C(C)=C1C3(C)C)[C@]1(OC(C)=O)CO[C@@H]1C[C@@H]2O` [Paclitaxel], in series [1], the solubility in water entry is listed as “insoluble”.
Consider “1-[(4R,5S)-5-[(2-aminoethyl)amino]-N^2-(10,12-dimethyl-1-oxotetradecyl)-4-hydroxy-L-ornithine]-5-[(3IRI)-3-hydroxy-L-ornithine]pneumocandin B0 diacetate (salt) [Caspofungin acetate]”, for which the “pH of a saturated aqueous solution” value in series [2] is “approximately 6.6”. Moreover, under “caspofungin”, the bioavailability was 0%. For the same molecule, in series [1], the “solubility in ethanol / alcohol” value was “slightly soluble”, the solubility in methanol result was “freely soluble” and the solubility in water result was “freely soluble”.
